Laboratory results from PubChem BioAssay AID1963451 (Molecular Pharmacology Branch, DTP, NCI, 2024).

Test system: 521955-158-R6-J3-PDC complex spheroid growth, % test/control
Experiment: Anticancer human tumor 521955-158-R6-J3-PDC patient-derived pancreatic carcinoma cell line growth inhibition [Asc]
Conditions: for IC50: curve of first compound; for viability, T/C: stronger effect = lower value; active = viability on the fitted dose curve at most 10% of control; inactive = the rest
Summary of the method: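 Stromal components (HUVEC and hMSC) are co-assembled with the cancer cells into multicellular spheroids. Drugs are then added singly or paired, at concentrations falling by half-log increments from a clinically achievable maximum, capped at 10 microM without known Cmax.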

[1] = second compound 0.00949 µM, first compound 0.0316 µM
[2] = second compound 0.00949 µM, first compound 0.1 µM
[3] = second compound 0.00949 µM, first compound 0.316 µM
[4] = second compound 0.00949 µM, first compound 1 µM
[5] = second compound 0.03 µM, first compound 0.0316 µM
[6] = second compound 0.03 µM, first compound 0.1 µM
[7] = second compound 0.03 µM, first compound 0.316 µM
[8] = second compound 0.03 µM, first compound 1 µM
[9] = second compound 0.0949 µM, first compound 0.0316 µM
[10] = second compound 0.0949 µM, first compound 0.1 µM
[11] = second compound 0.0949 µM, first compound 0.316 µM
[12] = second compound 0.0949 µM, first compound 1 µM
[13] = second compound 0.3 µM, first compound 0.0316 µM
[14] = second compound 0.3 µM, first compound 0.1 µM
[15] = second compound 0.3 µM, first compound 0.316 µM
[16] = second compound 0.3 µM, first compound 1 µM
[17] = second compound 0.949 µM, first compound 0.0316 µM
[18] = second compound 0.949 µM, first compound 0.1 µM
[19] = second compound 0.949 µM, first compound 0.316 µM
[20] = second compound 0.949 µM, first compound 1 µM
[21] = second compound 3 µM, first compound 0.0316 µM
[22] = second compound 3 µM, first compound 0.1 µM
[23] = second compound 3 µM, first compound 0.316 µM
[24] = second compound 3 µM, first compound 1 µM
[25] = second compound 0.00949 µM, first compound 0.00316 µM
[26] = second compound 0.00949 µM, first compound 0.01 µM
[27] = second compound 0.03 µM, first compound 0.00316 µM
[28] = second compound 0.03 µM, first compound 0.01 µM
[29] = second compound 0.0949 µM, first compound 0.00316 µM
[30] = second compound 0.0949 µM, first compound 0.01 µM
[31] = second compound 0.3 µM, first compound 0.00316 µM
[32] = second compound 0.3 µM, first compound 0.01 µM
[33] = second compound 0.949 µM, first compound 0.00316 µM
[34] = second compound 0.949 µM, first compound 0.01 µM
[35] = second compound 3 µM, first compound 0.00316 µM
[36] = second compound 3 µM, first compound 0.01 µM
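Also: spheroids exposed to compounds for 7 days.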
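For viability, T/C in this document: 100% = DMSO vehicle control wells.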

C=CC(=O)N1CCN(c2nc(=O)n(-c3c(C)ccnc3C(C)C)c3nc(-c4c(O)cccc4F)c(F)cc23)C(C)C1 (stereo unspecified) + CCN1C(C(=O)NC23CCC(C(=O)O)(CC2)CC3)C(c2cccc(Cl)c2F)C2(C(=O)Nc3cc(Cl)ccc32)C12CCCCC2
> 10000 nM: IC50 (second compound 0.00949 µM) | IC50 (second compound 0.03 µM) | IC50 (second compound 0.0949 µM) | IC50 (second compound 0.3 µM) | IC50 (second compound 0.949 µM) | IC50 (second compound 3 µM)
inactive: viability, T/C [1] 121% | viability, T/C [2] 111% | viability, T/C [3] 107% | viability, T/C [4] 106% | viability, T/C (second compound 0.00949 µM, first compound 3.16 µM) 114% | viability, T/C (second compound 0.00949 µM, first compound 10 µM) 109% | viability, T/C [5] 94.3% | viability, T/C [6] 113% | viability, T/C [7] 103% | viability, T/C [8] 114% | viability, T/C (second compound 0.03 µM, first compound 3.16 µM) 101% | viability, T/C (second compound 0.03 µM, first compound 10 µM) 95.7% | viability, T/C [9] 119% | viability, T/C [10] 91.2% | viability, T/C [11] 118% | viability, T/C [12] 103% | viability, T/C (second compound 0.0949 µM, first compound 3.16 µM) 108% | viability, T/C (second compound 0.0949 µM, first compound 10 µM) 101% | viability, T/C [13] 101% | viability, T/C [14] 115% | viability, T/C [15] 107% | viability, T/C [16] 112% | viability, T/C (second compound 0.3 µM, first compound 3.16 µM) 109% | viability, T/C (second compound 0.3 µM, first compound 10 µM) 103% | viability, T/C [17] 108% | viability, T/C [18] 105% | viability, T/C [19] 102% | viability, T/C [20] 107% | viability, T/C (second compound 0.949 µM, first compound 3.16 µM) 121% | viability, T/C (second compound 0.949 µM, first compound 10 µM) 92.2% | viability, T/C [21] 91.8% | viability, T/C [22] 95.8% | viability, T/C [23] 97.7% | viability, T/C [24] 92.5% | viability, T/C (second compound 3 µM, first compound 3.16 µM) 102% | viability, T/C (second compound 3 µM, first compound 10 µM) 94.3%

CNC(C)C(=O)NC1CN(S(=O)(=O)c2cccc(S(=O)(=O)N3CCC4CCC(C(=O)NC(c5ccccc5)c5ccccc5)N4C(=O)C(NC(=O)C(C)NC)C3)c2)CCC2CCC(C(=O)NC(c3ccccc3)c3ccccc3)N2C1=O (stereo unspecified) + CCN1C(C(=O)NC23CCC(C(=O)O)(CC2)CC3)C(c2cccc(Cl)c2F)C2(C(=O)Nc3cc(Cl)ccc32)C12CCCCC2
inactive: viability, T/C [25] 110% | viability, T/C [26] 95.2% | viability, T/C [1] 83.7% | viability, T/C [2] 89.8% | viability, T/C [3] 89.7% | viability, T/C [4] 89.7% | viability, T/C [27] 91.8% | viability, T/C [28] 96% | viability, T/C [5] 113% | viability, T/C [6] 101% | viability, T/C [7] 69% | viability, T/C [8] 81.5% | viability, T/C [29] 102% | viability, T/C [30] 89.9% | viability, T/C [9] 92.3% | viability, T/C [10] 86.9% | viability, T/C [11] 76.9% | viability, T/C [12] 86.2% | viability, T/C [31] 96.2% | viability, T/C [32] 111% | viability, T/C [13] 100% | viability, T/C [14] 99.8% | viability, T/C [15] 93.5% | viability, T/C [16] 95% | viability, T/C [33] 106% | viability, T/C [34] 85.1% | viability, T/C [17] 93.7% | viability, T/C [18] 101% | viability, T/C [19] 96.8% | viability, T/C [20] 109% | viability, T/C [35] 95% | viability, T/C [36] 96% | viability, T/C [21] 108% | viability, T/C [22] 86.2% | viability, T/C [23] 96.6% | viability, T/C [24] 80.8%
> 1000 nM: IC50 (second compound 0.00949 µM) | IC50 (second compound 0.03 µM) | IC50 (second compound 0.0949 µM) | IC50 (second compound 0.3 µM) | IC50 (second compound 0.949 µM) | IC50 (second compound 3 µM)

COc1c(OCCCN2CCOCC2)ccc2c3n(c(=NC(=O)c4cnc(N)nc4)nc12)CCN3 + CCN1C(C(=O)NC23CCC(C(=O)O)(CC2)CC3)C(c2cccc(Cl)c2F)C2(C(=O)Nc3cc(Cl)ccc32)C12CCCCC2
309 nM: IC50 (second compound 0.949 µM)
290 nM: IC50 (second compound 3 µM)
321 nM: IC50 (second compound 0.3 µM)
469 nM: IC50 (second compound 0.0949 µM)
365 nM: IC50 (second compound 0.03 µM)
211 nM: IC50 (second compound 0.00949 µM)
inactive: viability, T/C [25] 102% | viability, T/C [26] 79.9% | viability, T/C [1] 62.5% | viability, T/C [2] 65.2% | viability, T/C [3] 51.9% | viability, T/C [4] 28.3% | viability, T/C [27] 93.4% | viability, T/C [28] 77.1% | viability, T/C [5] 73.2% | viability, T/C [6] 66.2% | viability, T/C [7] 52.6% | viability, T/C [8] 37.4% | viability, T/C [29] 79.1% | viability, T/C [30] 77.9% | viability, T/C [9] 59.5% | viability, T/C [10] 77.7% | viability, T/C [11] 53.9% | viability, T/C [12] 37% | viability, T/C [31] 95.5% | viability, T/C [32] 83.3% | viability, T/C [13] 70.1% | viability, T/C [14] 65.5% | viability, T/C [15] 56% | viability, T/C [16] 32.1% | viability, T/C [33] 84% | viability, T/C [34] 90.6% | viability, T/C [17] 80.5% | viability, T/C [18] 67.6% | viability, T/C [19] 50.6% | viability, T/C [20] 32.7% | viability, T/C [35] 82.1% | viability, T/C [36] 83.8% | viability, T/C [21] 78.8% | viability, T/C [22] 65% | viability, T/C [23] 49.6% | viability, T/C [24] 28.8%
